Measured values published in patent US7981859B2, “Glycopeptide composition with improved antibiotic activity” (Xellia Pharmaceuticals APS, priority 2003, dated 2011).

Key:
[1] = test system: Staphylococcus aureus ATCC 6538; test: Microbiological potency by agar diffusion; type: cell-based
Protocol: Accordingly, in one embodiment a Teicoplanin composition as described herein, has a higher antibiotic activity than a corresponding Teicoplanin composition that has a %(mg TA3)/(mg TA3+TA2) of 6.5%, where the antibiotic activity is measured by a microbiological agar diffusion assay using Staphylococcus aureus ATCC 6538 as test strain and the measured potential potency (IU per mg TA2+TA3/g composition) is used to calculate the antibiotic activity.
Procedure for the Determination of Microbiological Potency by Agar Diffusion
(§1) Potency of Teicoplanin TA2, TA3-1 alone or in combination was determined by agar diffusion assays. Furthermore, the antimicrobial effect of pure and spiked products was investigated through the determination of the minimum inhibitory concentration (MIC) by a modified “MIC” test in micro titer trays.
The potency test is carried out according to the assay described below. […]
The results are analyzed by reading the zone diameters carefully with a 10× magnification and a precision of 0.1 mm. […]
(§2) Potency of teicoplanin TA2, TA3-1 alone or in combinations was determined by agar diffusion assays as described in example 1. Modified MIC-values in microtitre trays were determined as described in example 1.

S. aureus ATCC 6538 = test: Modified "MIC" test in micro titer trays (liquid medium); type: cell-based, Staphylococcus aureus
Protocol: as §1
Pure TA3-1, (Teicoplanin Material B 96% TA2-X, 4% TA3-1) and mixtures thereof were used. The test strain used was S. aureus ATCC 6538 in final concentrations of 5×10^5/ml and 5×10^4/ml respectively. The test was carried out in micro titer trays as a modification of an ordinary MIC test. Instead of using two-fold dilutions, 0.40-1.20 μg/ml with 0.20 μl divisions and 1.0-4.0 μl/ml with 1.0 μl divisions was used. The trays were incubated at 37° C. The wells were examined after 24 hours and any visible growth was noted.
In order to strengthen the evidence some experiments were performed with a modified antimicrobial analysis of Teicoplanin, spiked with different amounts of TA3-1. It was carried out in liquid medium in contrast to the agar diffusion tests and determined the MIC values. The results are summarized in Table 4, (“MIC”-values of Teicoplanin and/or TA3-1 on S. aureus ATCC6538).
as §2

SMILES: CC(=O)N[C@H]1[C@H](O[C@@H]2c3ccc(c(Cl)c3)Oc3cc4cc(c3O)Oc3ccc(cc3Cl)C[C@H]3NC(=O)[C@H](N)c5ccc(O)c(c5)Oc5cc(O)cc(c5)[C@H](NC3=O)C(=O)N[C@H]4C(=O)N[C@H]3C(=O)N[C@@H]2C(=O)N[C@H](C(=O)O)c2cc(O)cc(O[C@H]4O[C@H](CO)[C@@H](O)[C@H](O)[C@@H]4O)c2-c2cc3ccc2O)O[C@H](CO)[C@@H](O)[C@@H]1O [TA3-1, Teicoplanin A3-1]
- Potency IU/mg powder ([1]; Example 1, agar diffusion, 2-point assay, potency of the powder as such): 570 IU/mg powder
- potency by agar diffusion (IU/mg powder) compared with Targocid alone ([1]; Example 2, FIG. 5, Targocid/TA3-1 solutions mixed at different mass TA3-1%): much lower potency
- MIC value relative to Targocid alone (times higher) (S. aureus ATCC 6538; Example 2, FIG. 6, MIC in μg powder/ml solution): 4-5 times
- MIC (μg/ml) 5 × 10^4/ml S.aureus (S. aureus ATCC 6538; inoculum 5 × 10^4/ml, 37° C., read after 24 hours, lowest concentration without visible growth): 2–3 μg/ml
- MIC (μg/ml) 5 × 10^5/ml S.aureus (S. aureus ATCC 6538; inoculum 5 × 10^5/ml, 37° C., read after 24 hours, lowest concentration without visible growth): 2–3 μg/ml
